Measured values published in paper PMC7617978, “Anti-trypanosomal quinazolines targeting lysyl-tRNA synthetases show partial efficacy in a mouse model of acute Chagas disease” (Science translational medicine, 2025).
Where two headings read alike, the source gives them in different places.

Tests used:
[1] = test system: HepG2; assay: Drug sensitivity assay, HepG2 cells; type: cell-based
Experimental: Human HepG2 cells (ECACC 85011430) were cultivated at 37°C in minimal essential medium (MEM) supplemented with GlutaMax (1×, Thermo Fisher), 10% (v/v) fetal bovine serum (FBS), MEM non-essential amino acids (1×, Sigma) and in the presence of 5% CO2, as previously described ([29]). Cells were passaged twice weekly through detachment of adherent cells with trypsin/EDTA (Sigma) and subsequent dilution into fresh medium.
The relative potency of test compounds against T. cruzi epimastigotes ([29]), T. b. brucei bloodstream forms ([41]), T. b. rhodesiense bloodstream forms ([42]), L. donovani promastigotes ([43]) and Hep G2 cells ([29]) were established as previously described. The potency of test compounds on intracellular T. cruzi (Sylvio, X10/7A1) were determined in 96-well plates as previously described ([29]).

[2] = target: TcKRS1 (Trypanosoma cruzi, UniProt Q4D7V3); assay: TcKRS1 inhibition assay using BIOMOL Green; type: biochemical; conditions: for IC50: recombinant TcKRS1, 14 μM ATP, 400 μM L-lysine, read-out: IC50 values (95% CI)
Sequence of TcKRS1 (Q4D7V3 entry or part of it): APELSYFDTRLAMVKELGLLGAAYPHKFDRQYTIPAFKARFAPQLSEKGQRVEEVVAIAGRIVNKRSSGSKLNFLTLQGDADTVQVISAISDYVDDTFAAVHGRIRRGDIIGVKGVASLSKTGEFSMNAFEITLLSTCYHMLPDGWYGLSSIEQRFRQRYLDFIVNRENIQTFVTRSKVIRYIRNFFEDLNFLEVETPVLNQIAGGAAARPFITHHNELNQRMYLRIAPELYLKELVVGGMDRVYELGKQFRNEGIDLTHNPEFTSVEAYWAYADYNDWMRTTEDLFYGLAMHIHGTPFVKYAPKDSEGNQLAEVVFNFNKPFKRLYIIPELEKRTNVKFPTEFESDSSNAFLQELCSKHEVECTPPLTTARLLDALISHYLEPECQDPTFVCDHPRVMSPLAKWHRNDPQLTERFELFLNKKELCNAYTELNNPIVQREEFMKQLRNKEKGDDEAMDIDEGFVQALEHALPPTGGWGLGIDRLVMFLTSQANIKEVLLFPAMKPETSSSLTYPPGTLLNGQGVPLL
Experimental: For TcKRS1 (TcCLB.508971.30), synthetic DNA codon-optimized for expression in E. coli and encoding amino acid residues 54–580 of the TcKRS1 protein was synthesized by Genscript and subcloned into a modified pET15b vector, with an N-terminal 6×His tag and a Tobacco Etch Virus (TEV) cleavage site. The resulting plasmid was transformed into E. coli BL21(DE3) (Stratagene) for expression. A 10-ml starter culture was grown at 37°C overnight, then used to inoculate 1 L of LB Autoinduction media that was grown for 48 h at 20°C. Cell pellets were resuspended in buffer containing 25 mM Tris, 500 mM NaCl, 20 mM imidazole, pH 8.5, and lysed using a continuous flow cell disrupter (Constant Systems). Recombinant TcKRS1 was purified using Ni^2+ affinity chromatography, the 6×His tag cleaved using TEV protease and the tag and protease removed by a second Ni^2+ affinity chromatography step. The protein was further purified via size exclusion chromatography, where TcKRS1 eluted with a mass consistent with the protein forming a dimer. Purified recombinant protein were concentrated to ~1 mg/ml in buffer (25 mM Tris, 150 mM NaCl, 10 % glycerol, pH 7.5) for assay.
The enzymatic activity of recombinant KRS was determined by monitoring the concentration of pyrophosphate released during the first step of the reaction catalyzed by recombinant TcKRS1. The pyrophosphate formed was converted to two inorganic phosphate molecules using a pyrophosphatase enzyme and concentrations of the resulting phosphate were measured using the BIOMOL Green reagent (Enzo Life Sciences). All screening assays were performed in 384-well, clear, flat-bottom plates (Greiner) at room temperature (~23°C) in 50 μl reaction volumes.
To generate IC50 data for test compounds, 10-point inhibitor dose-response curves were prepared in 384-well assay plates using an ECHO 550 acoustic dispenser (Labcyte). Following preparation of the inhibitor curves, assays were carried out for recombinant KRS enzymes as follows: TcKRS1 assay wells contained rTcKRS1 assay buffer (100 mM Tris; […]; HsKRS reactions contained HsKRS assay buffer (30 mM Tris; […].
All assays were performed by adding 25 μl of assay buffer with enzyme to compound-containing assay wells before the reaction was initiated with the addition of a 25 μl substrate mixture containing L-lysine, ATP and pyrophosphatase. […] Following a 6–h reaction at room temperature, the assays were stopped by the addition of 50 μl BIOMOL Green. The BIOMOL Green signal was allowed to develop for 30 min before the absorbance of each well was read at 650 nm using a PheraStar plate reader (BMG). All liquid-dispensing steps were carried out using a Thermo Scientific WellMate dispenser (Matrix).

[3] = Metabolic stability in mouse liver microsomes; type: in vitro ADME; conditions: 1 µM, NADPH
Experimental: The metabolic stability of key compounds was assessed using the protocol established by TCG
Lifesciences (India). Briefly, mouse liver microsomes (MLM) were incubated with test
compounds or controls (atenolol, propranolol, diclofenac and verapamil) at 1 µM. Reactions
were initiated by the addition of NADPH and terminated by the addition of acetonitrile. […]

[4] = Plasma protein binding; type: in vitro ADME; conditions: read-out: bound to plasma proteins (converted)
Experimental: The propensity of DMU759 to bind to plasma proteins was determined as previously described ([21]).

[5] = test system: Lysyl-tRNA synthetase 1 (KRS1); assay: Isothermal proteome profiling (iTPP), TcKRS1; type: binding, T. cruzi; conditions: KRS1 (C4B63_45g239); lysate, compound at 10× EC50, 48°C
Experimental: (§1) T. cruzi epimastigote lysates were generated as previously described ([29]). Isothermal TPP assays were performed as previously described ([25]). […] Data processing and analyses were performed as previously described ([25]), except proteins were identified via searches against the T. cruzi Dm28C proteome (tritrypdb.org, version 49).

[6] = target: CYP3A4 (Homo sapiens, UniProt P08684); assay: In vitro CYP inhibition, 3A4; type: in vitro ADME
Sequence of CYP3A4 (P08684 whole entry, canonical isoform): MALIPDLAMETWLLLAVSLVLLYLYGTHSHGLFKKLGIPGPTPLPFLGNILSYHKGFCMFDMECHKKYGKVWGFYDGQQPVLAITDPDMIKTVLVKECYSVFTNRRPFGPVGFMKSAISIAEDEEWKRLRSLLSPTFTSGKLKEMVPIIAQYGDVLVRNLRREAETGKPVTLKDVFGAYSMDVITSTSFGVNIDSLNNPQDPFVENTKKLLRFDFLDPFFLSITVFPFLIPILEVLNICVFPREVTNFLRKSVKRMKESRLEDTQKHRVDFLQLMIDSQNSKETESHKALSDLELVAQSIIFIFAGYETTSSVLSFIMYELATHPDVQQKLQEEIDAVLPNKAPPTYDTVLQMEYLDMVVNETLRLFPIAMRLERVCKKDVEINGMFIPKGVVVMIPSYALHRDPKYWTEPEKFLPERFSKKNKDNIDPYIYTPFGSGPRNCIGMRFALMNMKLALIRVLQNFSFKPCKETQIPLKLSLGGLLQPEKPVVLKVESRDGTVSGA
Experimental: (§2) Compounds were screened for CYP inhibition activity using the protocol established by TCG Lifesciences (India). The activity of five CYP450 isoforms: 1A2; 2C9; 2D6, 3A4; and 2C19 was monitored in the presence of test or control (miconazole) compounds at 10 µM. Reactions were terminated after 10 min (30 min for CYP2C19) by the addition of acetonitrile, centrifuged and analysed via LC-MS/MS. […]

[7] = target: CYP2D6 (Homo sapiens, UniProt P10635); assay: In vitro CYP inhibition, 2D6; type: in vitro ADME
Sequence of CYP2D6 (P10635 whole entry): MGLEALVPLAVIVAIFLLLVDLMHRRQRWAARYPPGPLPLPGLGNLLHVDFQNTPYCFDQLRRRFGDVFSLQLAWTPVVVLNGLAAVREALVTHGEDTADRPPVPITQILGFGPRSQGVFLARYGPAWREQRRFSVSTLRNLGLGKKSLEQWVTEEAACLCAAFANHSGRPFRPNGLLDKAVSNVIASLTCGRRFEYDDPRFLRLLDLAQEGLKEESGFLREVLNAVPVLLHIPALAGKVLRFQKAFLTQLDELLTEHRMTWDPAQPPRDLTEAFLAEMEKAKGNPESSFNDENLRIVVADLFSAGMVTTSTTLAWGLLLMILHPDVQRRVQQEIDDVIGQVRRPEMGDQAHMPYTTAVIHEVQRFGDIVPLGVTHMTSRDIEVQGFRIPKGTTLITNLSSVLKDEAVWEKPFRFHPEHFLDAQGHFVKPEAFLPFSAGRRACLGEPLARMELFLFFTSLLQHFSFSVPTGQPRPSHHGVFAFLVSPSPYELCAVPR
Experimental: as §2

[8] = test system: T. cruzi epimastigote lysates; assay: Isothermal proteome profiling (iTPP), other hit proteins; type: binding; conditions: 10× EC50, 48°C
Experimental: as §1

[9] = DMU759 exposure in mice after oral dosing; type: in vivo; conditions: 50 mg/kg oral
Experimental: DMU759 (50 mg/kg) was orally administered to BALB/c mice. The dose solution was prepared on the day of dosing, and the vehicle was 0.5% (w/v) hydroxypropyl methylcellulose and 0.4% […]. Blood samples (10 μl) were collected from the tail vein of each animal at defined intervals then placed into 1.2 mL cryovials containing deionized water (90 μl) and stored at −80°C until analysis. Blood levels of DMU759 in mouse blood were determined by UPLC-MS/MS, as previously described ([58]).

[10] = 19S proteasome regulatory subunit (C4B63_14g170)
[11] = Conserved hypothetical protein (C4B63_42g251)
[12] = Mitochondrial processing peptidase, beta subunit (C4B63_3g1101)
[13] = Ribosomal protein S26 (C4B63_6g2300)
[14] = cysteine peptidase, Clan CA, family C2 (C4B63_22g162)

Cc1nc(N)c2c(F)c(F)c(NC3CCCC3)c(F)c2n1 [DMU371, N7-Cyclopentyl-5,6,8-trifluoro-2-methylquinazoline-4,7-diamine]
EC50 ([1]; Homo sapiens, HepG2, read-out: EC50 value): 5.82 ± 0.5 µM
extent of inhibition of TcKRS1 [2]: full inhibition
IC50 [2]: 0.185 µM
Mouse liver microsome stability [3]: > 500 µL/min/mg

Cc1nc(N)c2c(F)c(F)c(SC3CCCCC3)c(F)c2n1 [DMU759, 7-(Cyclohexylthio)-5,6,8-trifluoro-2-methylquinazolin-4-amine]
fraction unbound [4]: 0.11
Abundance Log2 fold change Rep 1 [5]: 2.26
Abundance Log2 fold change Rep 2 [5]: 1.94
EC50 ([1]; Homo sapiens, HepG2; read-out: EC50 value): 16.9 ± 5.38 µM
inhibition at 10 min, 10 µM [6]: 0%
inhibition at 10 min, 10 µM [7]: 14.5 ± 2.5%
Abundance Log2 fold change Rep 1 [8, 10]: -2.64
Abundance Log2 fold change Rep 2 [8, 10]: -3.79
Abundance Log2 fold change Rep 1 [8, 11]: -2.25
Abundance Log2 fold change Rep 2 [8, 11]: -1.75
Abundance Log2 fold change Rep 1 [8, 12]: -2.04
Abundance Log2 fold change Rep 2 [8, 12]: -2.35
Abundance Log2 fold change Rep 1 ([8]; P-type H+-ATPase (C4B63_116g3)): -2.27
Abundance Log2 fold change Rep 2 ([8]; P-type H+-ATPase (C4B63_116g3)): -1.74
Abundance Log2 fold change Rep 1 [8, 13]: -1.59
Abundance Log2 fold change Rep 2 [8, 13]: -1.80
Abundance Log2 fold change Rep 1 [8, 14]: -1.58
Abundance Log2 fold change Rep 2 [8, 14]: -2.80
extent of inhibition of TcKRS1 [2]: full inhibition
IC50 [2]: 0.015 µM
free blood concentration versus EC99 ([9]; corrected for plasma protein binding, in words): did not exceed the established EC99
time of peak blood concentration ([9]; post dosing): one
time total blood concentrations exceeded EC99 ([9]; post dosing): up to 4 hours
Mouse liver microsome stability [3]: > 500 µL/min/mg
